Assay results reported in patent US20240358790A1, “COMPOSITIONS AND METHODS FOR TREATING AUTOIMMUNITY, INCLUDING AUTOIMMUNITY ASSOCIATED WITH CANCER AND CANCER THERAPY” (Interk Peptide Therapeutics Limited, priority 2021, published 2024).
Non-standard residues stand in square brackets, D forms with d. Residues, ends and D or L forms follow the SMILES beside them. No end group written: not given here. ξ: configuration not given here. ξGly(decyl) = CCCCCCCCCCC(N)C(=O)O; 2Adod = 2-aminododecanoic acid

How the values were obtained:
IL-2 = IL-2 ELISA, anti-CD3/anti-CD28 stimulated isolated CD3+ T cells; assay type: cell-based, human; conditions: 72 hrs
[1] = PET-CT uptake of Cu64-labelled NOTA-peptide in lung and blood after SC, IP, oral gavage; assay type: in vivo; conditions: 200 ug SC/IP and 1 mg OG, mice
Protocol: For FIG. 1d, 1,4,7-Triazacyclononane-1,4,7-triacetic acid (NOTA) conjugated peptides were acquired from Auspep, reconstituted in deionised water at 10 mg/mL and used without further purification. Peptides were incubated with ^64Cu at 1000-fold excess of peptide in 0.1 M pH 5.5 ammonium acetate buffer for 45 minutes at 37° C. 1 μL Samples of each solution were taken and mixed 1:1 with 50 mM EDTA. EDTA incubated sample or neat solution was spotted on TLC paper (Agilent iTLC-SG Glass microfiber chromatography paper impregnated with silica gel) and run with 50:50 H2O:ethanol. Detection of radiolabelled species migration was then achieved by imaging on a Bruker In Vivo MS FX Pro imaging system using a radioisotopic phosphor screen. Control experiments were conducted to monitor the elution profile of free ^64Cu and ^64Cu bound to EDTA for quality control. […]
The PET Images were reconstructed using an ordered-subset expectation maximization (OSEM2D) algorithm and analysed using the Inveon Research Workplace software (IRW 4.1) (Siemens) which allows fusion of CT and PET images and definition of regions of interest (ROIs). […] Activity concentrations were then expressed as percent of the decay-corrected injected activity per cm^3 of tissue that can be approximate as percentage injected dose/g (% ID/g). […]

B16-F10 melanoma cells = experiment: SRB proliferation assay, B16-F10 melanoma cells; assay type: cell-based; conditions: 2.5 μM, 72 h
Protocol: (§1) In addition, doxorubicin at 2.5 μM was tested in 5 replicate wells as a positive control. Cells were cultured for a further 72 h in the presence of drug or control before the cell culture medium was removed and the attached cells fixed in ice-cold trichloroacetic acid. […] Each experiment was performed on two independent occasions (biological replicates) and data were analysed in GraphPad Prism 9 using non-linear fit of log (inhibitor) versus response.

Lewis Lung Cancer cells = experiment: SRB proliferation assay, Lewis Lung Cancer cells; assay type: cell-based; conditions: 2.5 μM, 72 h
Protocol: as §1

c-Src = c-Src (Homo sapiens, UniProt P12931); experiment: c-Src kinase activity assay ([γ33P-ATP], filtermat); assay type: biochemical
Protocol: c-Src, Fyn, Hck is incubated with 8 mM MOPS pH 7.0, 0.2 mM EDTA, 250 μM KVEKIGEGTYGVVYK (Cdc2 peptide), 10 mM MgAcetate and [γ33P-ATP] (specific activity approx. 500 cpm/pmol, concentration as required). The reaction is initiated by the addition of the MgATP mix. After incubation for 40 minutes at room temperature, the reaction is stopped by the addition of 3% phosphoric acid solution. 10 μL of the reaction is then spotted onto a P30 filtermat and washed three times for 5 minutes in 75 mM phosphoric acid and once in methanol prior to drying and scintillation counting.

Lck = Lck (Homo sapiens, UniProt P06239); experiment: Lck kinase activity assay ([γ33P-ATP], filtermat); assay type: biochemical
Protocol: Lck is incubated with 50 mM Tris pH 7.5, 0.1 mM EGTA, 0.1 mM Na3VO4, 250 μM KVEKIGEGTYGWYK (Cdc2 peptide), 10 mM Magnesium acetate and [γ33P-ATP] (specific activity approx. 500 cpm/pmol, concentration as required). The reaction is initiated by the addition of the Mg/ATP mix. After incubation for 40 minutes at room temperature, the reaction is stopped by the addition of phosphoric acid to a concentration of 0.5%. 10 μL of the reaction is then spotted onto a P30 filtermat and washed four times for 4 minutes in 0.425% phosphoric acid and once in methanol prior to drying and scintillation counting.”

MAP4K1 (HPK1) = MAP4K1 (HPK1) (Homo sapiens, UniProt Q92918); experiment: MAP4K1 (HPK1) kinase activity; assay type: biochemical
CD28 = CD28 expression on CD4+ T cells of stimulated PBMCs; assay type: cell-based, human; conditions: PBMCs + anti-CD3, 72 hrs
Protocol: FIG. 7: RSKAKNPLYR-(2Adod)4-NH2 increases CD28 levels on T cells. […] Data presented indicates the mean respective expression in CD4+ T cell populations in response to peptide treatment, +/−SEM, n=4. Data was analysed by two-way ANOVA with Dunnett's post test, *P<0.05, **P<0.01, ***P<0.001, ****P<0.0001. *** indicates all bars under the line are significant compared to vehicle. Red dotted line indicates unstimulated PBMC expression.
Because full activation of MAP kinases requires the presence of the TCR co-receptor, the present inventors sought to examine the expression of CD28 on T cells.

exhausted CD4+ cells = experiment: IL-2 from exhausted CD4+ cells upon restimulation (MBP-Tracker mouse splenocytes); assay type: cell-based, mice; conditions: 72 hrs, multiplex immunoassay
Protocol: Supernatants were collected after 72 hrs in culture to assess IL-2 cytokine production measured by multiplex immunoassay. Data are presented as mean+/−SEM from 4 biological replicates normalised to vehicle control (0). **P<0.01, Non-parametric one way ANOVA (Freidman) with Dunns post-test was used to compare groups at each dose level to lowest level (0.08 μM).
T examine the ability of peptides comprising D-amino acids induce low levels of IL-2, IL-2 expression on exhausted CD4+ cells upon restimulation was examined. In brief, a single spleen per experiment was removed from MBP-Tracker mice and processed to generate a single cell suspension of splenocytes. Cells were resuspended at 3×10^6/mL and stimulated with WT-MBP (control, non-exhausted cells) or APL-MBP (to generate exhausted cells). Cells were stimulated for 72 hr. Following stimulation, T cells were purified by ficoll density gradient and subsequently re-plated at 2×10^6/mL in 20U/mL IL-2 for four days. After 4 days, cells were collected, resuspended (4×10^5/mL, final 2×10^4 per well) and restimulated using irradiated APC (from B10PL×C57BL/6 mice, 4×10^6/mL, final 2×10^5 per well) a single dose of APL-MBP peptide, together with test or reference substance or appropriate controls for 72 hrs. […]

MAP4K1 (HPK1), sequence (Q92918 whole entry): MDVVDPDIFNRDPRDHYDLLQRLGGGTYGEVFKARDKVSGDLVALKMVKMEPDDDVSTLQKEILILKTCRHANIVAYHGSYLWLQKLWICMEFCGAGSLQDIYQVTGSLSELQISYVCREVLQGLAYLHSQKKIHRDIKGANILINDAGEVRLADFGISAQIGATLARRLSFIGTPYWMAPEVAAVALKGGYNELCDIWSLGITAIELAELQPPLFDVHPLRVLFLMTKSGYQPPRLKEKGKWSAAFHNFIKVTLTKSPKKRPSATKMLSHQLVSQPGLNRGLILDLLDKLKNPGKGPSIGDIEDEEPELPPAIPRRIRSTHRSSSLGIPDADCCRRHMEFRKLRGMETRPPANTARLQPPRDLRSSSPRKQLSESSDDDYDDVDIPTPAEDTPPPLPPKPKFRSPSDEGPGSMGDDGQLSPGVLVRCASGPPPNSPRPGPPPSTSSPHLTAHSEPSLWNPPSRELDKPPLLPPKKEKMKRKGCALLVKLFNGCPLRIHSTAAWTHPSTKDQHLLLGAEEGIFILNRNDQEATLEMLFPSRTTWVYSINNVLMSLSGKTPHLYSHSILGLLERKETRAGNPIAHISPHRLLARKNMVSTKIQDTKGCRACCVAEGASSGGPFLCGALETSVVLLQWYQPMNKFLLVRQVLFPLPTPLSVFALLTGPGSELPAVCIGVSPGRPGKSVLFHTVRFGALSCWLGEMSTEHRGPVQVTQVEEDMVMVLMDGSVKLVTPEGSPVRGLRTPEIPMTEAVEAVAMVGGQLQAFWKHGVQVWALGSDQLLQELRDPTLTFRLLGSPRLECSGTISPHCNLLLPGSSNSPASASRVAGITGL
Lck, sequence (P06239 whole entry): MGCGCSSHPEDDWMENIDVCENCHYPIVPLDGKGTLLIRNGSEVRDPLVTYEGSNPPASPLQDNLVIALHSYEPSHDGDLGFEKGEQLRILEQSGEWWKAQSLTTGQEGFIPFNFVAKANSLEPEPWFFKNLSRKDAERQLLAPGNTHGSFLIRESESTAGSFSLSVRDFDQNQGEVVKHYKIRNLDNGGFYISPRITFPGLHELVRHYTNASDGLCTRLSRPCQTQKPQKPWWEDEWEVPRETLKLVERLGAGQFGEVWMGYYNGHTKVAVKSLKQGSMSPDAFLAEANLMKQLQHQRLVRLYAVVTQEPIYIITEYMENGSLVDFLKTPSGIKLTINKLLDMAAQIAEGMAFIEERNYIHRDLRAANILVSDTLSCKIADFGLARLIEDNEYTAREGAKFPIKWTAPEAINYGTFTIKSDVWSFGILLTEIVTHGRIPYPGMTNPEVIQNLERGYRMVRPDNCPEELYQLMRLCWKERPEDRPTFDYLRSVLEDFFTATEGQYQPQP

COc1cc(-c2nn([C@H]3CC[C@H](N4CCN(C(C)=O)CC4)CC3)c3ncnc(N)c23)ccc1NC(=O)c1cc2ccccc2n1C [A-770041]
enhancement of IL-2 production, Lck inhibitor compared with IK14004 (IL-2): ten-fold greater enhancement | increase in IL-2 secretion above vehicle control (IL-2; A-770041 at 100 nM): 300%

CCCCCCCCCCC(NC(=O)C(CCCCCCCCCC)NC(=O)C(CCCCCCCCCC)NC(=O)C(CCCCCCCCCC)NC(=O)[C@H](CCCNC(=N)N)NC(=O)[C@H](Cc1ccc(O)cc1)NC(=O)[C@H](CC(C)C)NC(=O)[C@@H]1CCCN1C(=O)[C@H](CC(N)=O)NC(=O)[C@H](CCCCN)NC(=O)[C@H](C)NC(=O)[C@H](CCCCN)NC(=O)[C@H](CO)NC(=O)[C@@H](N)CCCNC(=N)N)C(N)=O (some centres unmarked) [IK14004, RSKAKNPLYR-(2Adod)4-NH2] (H-RSKAKNPLYR[ξGly(decyl)][ξGly(decyl)][ξGly(decyl)][ξGly(decyl)]-NH2; N-terminus assumed)
tolerability of doses [1]: Well tolerated

COc1cccc2c1C(=O)c1c(O)c3c(c(O)c1C2=O)C[C@@](O)(C(=O)CO)C[C@@H]3O[C@H]1C[C@H](N)[C@H](O)[C@H](C)O1 [doxorubicin]
kill in vitro, B16-F10 melanoma cells (B16-F10 melanoma cells): 100% | kill in vitro, Lewis Lung Cancer cells (Lewis Lung Cancer cells): 100%

RSKAKNPLYR [IK14000]
effect on c-Src activity (c-Src): inhibits c-Src | effect on Lck activity (Lck): neither the 10 mer RSKAKNPLYR (designated IK14000) nor 4 lipidic peptide residues designated IK00041 activated Lck

RSKAKNPLYR-(2Adod)3-NH2 (RSKAKNPLYR-{2Adod-2Adod-2Adod-NH2}) [IK14003, … conjugated to three 2-amino dodecanoic acid residues]
effect on c-Src activity (c-Src): stimulated c-Src activity above 1 uM

rskaknplyr-(2Adod)4-NH2 ([dR][dS][dK][dA][dK][dN][dP][dL][dY][dR]-{2Adod-2Adod-2Adod-2Adod-NH2}) […-(2Adod)4-NH2 comprising D amino acids]
effect on MAP4K1 (HPK1) kinase activity (MAP4K1 (HPK1)): inhibits | CD28 levels (CD28): increased CD28 levels | IL-2 expression on exhausted CD4+ cells upon restimulation (exhausted CD4+ cells): increases IL-2 expression
